Laboratory results reported in paper PMC2982120 (2010).

T1: Jen1p (Saccharomyces cerevisiae, UniProt P36035)
T1 sequence (P36035 2-616): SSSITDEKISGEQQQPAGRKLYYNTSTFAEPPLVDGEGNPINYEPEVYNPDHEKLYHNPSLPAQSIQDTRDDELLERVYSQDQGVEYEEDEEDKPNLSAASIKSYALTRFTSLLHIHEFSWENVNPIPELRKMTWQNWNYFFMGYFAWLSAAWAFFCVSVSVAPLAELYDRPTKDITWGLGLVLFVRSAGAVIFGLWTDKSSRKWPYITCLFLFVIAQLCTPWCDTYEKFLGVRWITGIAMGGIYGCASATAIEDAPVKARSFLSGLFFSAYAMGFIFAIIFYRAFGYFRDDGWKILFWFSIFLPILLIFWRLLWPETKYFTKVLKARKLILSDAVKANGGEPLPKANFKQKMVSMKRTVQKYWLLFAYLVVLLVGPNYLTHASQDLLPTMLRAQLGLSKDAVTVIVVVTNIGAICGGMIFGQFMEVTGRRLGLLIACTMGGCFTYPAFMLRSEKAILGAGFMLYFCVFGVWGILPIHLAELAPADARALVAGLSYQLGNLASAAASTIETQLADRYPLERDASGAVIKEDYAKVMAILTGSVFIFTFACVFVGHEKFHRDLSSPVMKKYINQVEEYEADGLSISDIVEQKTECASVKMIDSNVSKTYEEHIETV

B1: Jen1p (Saccharomyces cerevisiae S288C) (protein)
chain: SSSITDEKISGEQQQPAGRKLYYNTSTFAEPPLVDGEGNPINYEPEVYNPDHEKLYHNPSLPAQSIQDTRDDELLERVYSQDQGVEYEEDEEDKPNLSAASIKSYALTRFTSLLHIHEFSWENVNPIPELRKMTWQNWNYFFMGYFAWLSAAWAFFCVSVSVAPLAELYDRPTKDITWGLGLVLFVRSAGAVIFGLWTDKSSRKWPYITCLFLFVIAQLCTPWCDTYEKFLGVRWITGIAMGGIYGCASATAIEDAPVKARSFLSGLFFSAYAMGFIFAIIFYRAFGYFRDDGWKILFWFSIFLPILLIFWRLLWPETKYFTKVLKARKLILSDAVKANGGEPLPKANFKQKMVSMKRTVQKYWLLFAYLVVLLVGPNYLTHASQDLLPTMLRAQLGLSKDAVTVIVVVTNIGAICGGMIFGQFMEVTGRRLGLLIACTMGGCFTYPAFMLRSEKAILGAGFMLYFCVFGVWGILPIHLAELAPADARALVAGLSYQLGNLASAAASTIETQLADRYPLERDASGAVIKEDYAKVMAILTGSVFIFTFACVFVGHEKFHRDLSSPVMKKYINQVEEYEADGLSISDIVEQKTECASVKMIDSNVSKTYEEHIETV

How the values were obtained:
Jen1p = target: T1, Jen1p; assay: […]-lactate uptake in Jen1p-overexpressing yeast; assay type: cell-based
selenite uptake = substrate: O=[Se](O)O; assay: selenite uptake; assay type: cell-based, Saccharomyces cerevisiae; conditions: competitive with lactate

Row | Molecule | Ki (Jen1p) | Km (selenite uptake)
1 | CC(O)C(=O)O (centres unmarked) [lactate] | 900 µM | –
2 | B1 | – | 910 ± 130 µM
